The nature of data set [1]: neutral red assay (NRA), drug-induced cytotoxicity. It is filed as cell-based, human. The note with it: human. The protocol:
(§1) Drug induced cytotoxicity in HFFs was measured as a reduction of cell viability determined by neutral red uptake assay (NRA), as described previously. Briefly, HFFs treated with compounds for 7 d were incubated with a final concentration of 40 μg/mL neutral red (Sigma Aldrich, St. Louis, MO, USA) for 3 h. Incorporated neutral red was released from the cells by incubation with destaining solution (50% ethanol, 49% H2O, 1% acetic acid) and subsequently quantitated in a microplate reader (PerkinElmer, Waltham, MA, USA) by fluorescence measurement using 560/630 nm for excitation/emission, respectively.

Data set [2] deals with mock-infected primary human foreskin fibroblasts (HFFs). Nature of the data set: neutral red assay (NRA), drug-induced cytotoxicity. It is filed as cell-based. The note with it: single treatment; mock-infected HFFs, 7 d; mean ± SD. The protocol:
as §1

Data set [3] deals with HCMV AD169-GFP. As to the kind of experiment: Loewe additivity fixed-dose assay.
Experimental: (§2) Loewe additivity was assessed using an adapted protocol of the HCMV GFP-based replication assay [21, 61] described previously [1]. HFFs were seeded at app. 1.6 × 10^5 cells/well in 12-well culture plates (four plates per assay) and infected on the following day with HCMV AD169-GFP [61] in a dilution resulting in 25% GFP-positive cells at 7 d p.i. (i.e., 1× TCID25^7d). […] Standard protocol comprised a serial dilution of six concentrations/single compound, starting with app. 4–8 × EC50, and a 1:2 serial dilution of eight concentrations of the combination, starting with a combination of half of the highest concentrations of both single dilution series. All infections were performed in biological duplicates. Cells were lysed by the addition of 200 µL lysis buffer/well 7 d p.i., and cell suspensions were mixed and transferred to a 96-well plate. Centrifugation was performed at 3000 rpm for 15 min and clear lysates were subjected to automated GFP quantitation in a Victor X4 microplate reader (PerkinElmer, Waltham, MA, USA). Antiviral efficacy (mean of duplicate measurement of biological duplicates) was expressed as the percentage of solvent control and entered into the CompuSyn software (Version 1.0 [65]; ComboSyn, Inc., Paramus, NJ, USA). Only experiments with an r value > 0.90 and EC50 values close to previously determined concentrations were accepted.
In data set [4] the test system is CDK7. Nature of the data set: confocal immunofluorescence quantitation of CDK7 signal in HFFs. To be noted: HCMV AD169-GFP-infected HFFs, 7 d; MBV 10 µM, LDC4297 0.1 µM, R25 1 µM, abemaciclib 1 µM; untreated mock-infected = 100%; mean ± SEM.
In data set [5] the test system is HCMV AD169-GFP. As to the kind of experiment: antiviral drug treatment in wild-type HFFs. The note with it: WT HFFs.
Experimental: (§3) To achieve a transient knock-out of cyclin H, app. 1.5 × 10^5 HFFs/well were grown in 12-well culture plates and, starting the following day, incubated for 24 h with 0.5 mL of lentiviral supernatant (a mixture containing all six gRNAs described in 4.9) supplemented with 0.5 mL MEM and 7.5 µg/mL polybrene (Sigma Aldrich, St. Louis, MO, USA) per well. Virus supernatant was replaced by fresh media 24 h later and cells were used for infection experiments (see 4.5 and 4.6) on the following day.
(§4) 12-well culture plates and treated with lentiviral supernatants to achieve a CRISPR/C as9 -media ted
(§5) transient cyclin H knock-down. Subsequently, cells were dir ectly infected with HCMV AD169-GF P for
(§6) 90 min , then fresh medium, supplemented with indicated concentrations of compounds, was added. Cells
(§7) were harvested and lysed 7 d pos t-infection and vira l GFP reporter signa ls were measured in
(§8) quadruplicate. Data are presented as mean values of biological duplicates, adjusted in percent to the
(§9) respective solvent DMSO c on t r ol (ctrl ).
The test system of data set [6] is HCMV ΔUL97-GFP BAC213. As to the kind of experiment: GFP replication assay with deletion mutant.
Experimental: Primary human foreskin fibroblasts (HFFs, derived from clinical samples, Children’s Hospital, Erlangen, Germany) were grown in Eagle’s minimal essential medium (MEM) supplemented with 1 × GlutaMAX^TM (both Thermo Fisher Scientific, Waltham, MA, USA), 10 μg/mL gentamicin and 10% fetal bovine serum (FBS, Capricorn, Ebsdorfergrund, Germany). […] Cultured cells were maintained at 37 °C, 5% CO2 and 80% humidity. All cell culture was regularly monitored for absence of mycoplasma contamination (Lonza™ Mycoalert™, Thermo Fisher Scientific, Waltham, MA, USA). […]
Loewe additivity was assessed using an adapted protocol of the HCMV GFP-based replication assay [21, 61] described previously [1]. […] Centrifugation was performed at 3000 rpm for 15 min and clear lysates were subjected to automated GFP quantitation in a Victor X4 microplate reader (PerkinElmer, Waltham, MA, USA). Antiviral efficacy (mean of duplicate measurement of biological duplicates) was expressed as the percentage of solvent control and entered into the CompuSyn software (Version 1.0 [65]; ComboSyn, Inc., Paramus, NJ, USA). Only experiments with an r value > 0.90 and EC50 values close to previously determined concentrations were accepted.
The test system of data set [7] is HCMV AD169-GFP. As to the kind of experiment: antiviral drug treatment in cyclin H knock-out HFFs. The note with it: CycH KO HFFs.
Experimental: as §3, §4, §5, §6, §7, §8, §9
The test system of data set [8] is HCMV AD169-GFP. The note with it: for SI: selectivity index CC50/EC50.
Experimental: (§10) Primary human foreskin fibroblasts (HFFs, derived from clinical samples, Children’s Hospital, Erlangen, Germany) were grown in Eagle’s minimal essential medium (MEM) supplemented with 1 × GlutaMAX^TM (both Thermo Fisher Scientific, Waltham, MA, USA), 10 μg/mL gentamicin and 10% fetal bovine serum (FBS, Capricorn, Ebsdorfergrund, Germany). […] Cultured cells were maintained at 37 °C, 5% CO2 and 80% humidity. All cell culture was regularly monitored for absence of mycoplasma contamination (Lonza™ Mycoalert™, Thermo Fisher Scientific, Waltham, MA, USA). Recombinant HCMV AD169 expressing green fluorescent protein (AD169-GFP, [61]) and recombinant ORF-UL97-deleted HCMV AD169 expressing green fluorescent protein (ΔUL97-GFP BAC213 [48]) were used for in vitro replication assays.
as §2
Data set [9] deals with HCMV AD169-GFP. Nature of the data set: confocal quantitation of GFP reporter signal in HFFs. To be noted: MBV 10 µM, LDC4297 0.1 µM, R25 1 µM, abemaciclib 1 µM; untreated infected = 100%, mock = 0%.
In data set [10] the test system is HCMV AD169-GFP. As to the kind of experiment: microbe, parasite or virus in culture.
Experimental: as §10, §2
Setting [11] is: mock-infected primary human foreskin fibroblasts (HFFs), single treatment, mock-infected HFFs, 7 d, mean ± SD, read-out: CC50.
Setting [12] is: Human betaherpesvirus 5, AD169, single treatment, HCMV AD169-GFP in HFFs, mean ± SD.

From publication PMC8910733, “Cyclin-Dependent Kinases (CDKs) and the Human Cytomegalovirus-Encoded CDK Ortholog pUL97 Represent Highly Attractive Targets for Synergistic Drug Combinations” (International Journal of Molecular Sciences, 2022) come the findings set out here.

Values joined by “and” are separate entries in the source; they are usually repeats but may differ in a detail not shown here. Identical values can stand only once. Like-named read-outs stand apart in the source and are kept apart here. Bounds are passed on as bounds.

What is called CC50 is the concentration giving 50% cytotoxicity. Consider `CC(=O)N[C@@H]1CCC[C@H](C(=O)Nc2cc(-c3cnn4c3CC(C)(C)C4)c(Cl)cn2)C1` [AZD4573], for which the CC50 at 7 d in data set [1] (setting [11]) worked out at 350 ± 90 nM.

Turning to `CC[C@H](Nc1nc(NCc2cnc(C)cc2C)c2ncn(C(C)C)c2n1)[C@@H](C)O` [CYC065], in data set [1] (setting [11]), the CC50 at 7 d is < 100 nM.

As a reminder, the EC50 is the concentration at which the effect is half-maximal. Broadly, the EC90 is the point of the concentration-response curve where the effect stands at 90%. Consider `CC(C)c1cnn2c(NCc3ccccc3-n3cccn3)nc(OC3CCCNC3)nc12` (stereo not shown) [LDC4297], for which the CC50 in [2] is > 10000 nM. The EC50 was 13 nM and 9 nM and 16 nM in [3] (read-out: EC50 single drugs, single drug, run beside the combination of the same table section); 61 ± 8 nM in data set [6] (deletion mutant ΔUL97 BAC213 (Figure 5B)); 16 ± 5 nM in data set [8] (parental HCMV AD169-GFP, in parallel with ΔUL97 mutant (Figure 5A)); 9 ± 2 nM in [8] (single treatment, HCMV AD169-GFP in HFFs, mean ± SD). Further, the concentration for an effect of 90% (EC90) in data set [3] (read-out: EC90 single drugs, single drug, run beside the combination of the same table section) was 97 nM and 147 nM and 88 nM and 124 nM. Besides, in [4], the CDK7 intensity is on record as 172% ± 7%. Also, the “mean replication (in % solvent control)” value is 91% in [5] (0.003 µM); 23% in data set [5] (0.025 µM); 7% in data set [5] (0.1 µM); 85% in data set [7] (0.003 µM); 32% in data set [7] (0.025 µM); 4% in data set [7] (0.1 µM). The SI in data set [8] (single treatment) is >1000. Moreover, the “HCMV AD169-GFP-specific reporter signal (GFP intensity)” value in [9] was “below 25%”.

Take `CC(C)Nc1nc2cc(Cl)c(Cl)cc2n1[C@H]1O[C@@H](CO)[C@H](O)[C@@H]1O` [MBV, maribavir]: in [1] (setting [11]), the CC50 at 7 d is > 100000 nM. For the same molecule, the “mean replication (in % solvent control)” value in data set [5] (0.31 µM) is listed as 20%; in data set [5] (2.5 µM) it was 6%; in data set [5] (10 µM), 3%; in [7] (0.31 µM) it was 21%; in [7] (2.5 µM) it was 9%; in [7] (10 µM) it was 6%. In addition, the EC50 in data set [6] (Human betaherpesvirus 5) was > 20000 nM; in [10] (Human betaherpesvirus 5, AD169, parental HCMV AD169-GFP, in parallel with ΔUL97 mutant (Figure 5A)) it was 220 ± 260 nM; in data set [10] (setting [12]), 350 ± 420 nM. Further, the SI in data set [8] (single treatment) is recorded as >250. For the same molecule, in data set [9], the “HCMV AD169-GFP-specific reporter signal (GFP intensity)” value was “below 25%”.

In the case of `Cc1c(Br)c(Br)c2c3c1nc(N1CCNCC1)n3CCC2` [SEL120], the CC50 at 7 d in data set [1] (setting [11]) turned out to be 5900 ± 3850 nM. The same molecule returned a half-maximal effective concentration (EC50) in data set [10] (setting [12]) of 79 ± 1 nM. The SI in data set [8] (single treatment) amounted to 75.

Regarding `CC(C)(C)c1cnc(CSc2cnc(NC(=O)C3CCN(CC(=O)NCCOCCOCCOCCNc4cccc5c4C(=O)N(C4CCC(=O)NC4=O)C5=O)CC3)s2)o1` (stereo not shown) [THAL-SNS032], in data set [1] (setting [11]), the CC50 at 7 d amounted to 140 ± 60 nM. In data set [10] (setting [12]), this molecule gave an EC50 of 25 ± 2 nM. In addition, the SI in data set [8] (single treatment) is 6.

As for `CCc1cnn2c(NCc3ccc[n+]([O-])c3)cc(N3CCCC[C@H]3CCO)nc12` [dinaciclib], the CC50 at 7 d in data set [1] was < 100 nM.

With `CN1CCC(c2c(O)cc(O)c3c(=O)cc(-c4ccccc4Cl)oc23)C1CO` (stereo not shown) [riviciclib], the CC50 at 7 d in data set [1] (setting [11]) stood at 1600 ± 60 nM.

`CC(C)c1cnn2c(NCc3ccccc3)cc(NC[C@H]3CCNC[C@@H]3O)nc12` [samuraciclib]: in [1] (single treatment, mock-infected HFFs, 7 d, mean ± SD, read-out: CC50), the CC50 at 7 d turned out to be 500 ± 210 nM.

Take CVT-313: half-maximal cytotoxicity in data set [2] (CC50) was put at 5570 ± 50 nM.

As to SY1365, the CC50 in [2] is < 100 nM.
